The results in this text go back to patent US9750719B2, “Tetrazole compounds as calcium channel blockers” (CONVERGENCE PHARMACEUTICALS LIMITED, priority 2010, dated 2017).

Where a name gives a salt, the structure may show the parent alone. Bounds are passed on as bounds.

The target of the experiment is T1, human Cav2.2 α (α1B) subunit, along with the human β3 and α2δ1 auxiliary subunits (Homo sapiens, UniProt Q00975).
T1 construct: expressed in transfected cells
Description: hCav2.2 assay, IonWorks planar array electrophysiology in stable HEK293 cell line. Type of experiment: cell-based. The note with it: inhibition by 50% of current elicited by the 1st depolarising pulse; HEK293 cells; read-out: tonic pIC50 (converted). The procedure:
Compounds as defined in the first or second aspect may be tested for in vitro biological activity in the hCav2.2 assay in accordance with the following studies:
Stable cell lines expressing the human Cav2.2 α (α1B) subunit, along with the human β3 and α2δ1 auxiliary subunits were created following sequential transfection and selection of human embryonic kidney (HEK293) cells. HEK293 cells were cultured in Dulbecco's modified Eagles media/F12 media (Invitrogen, Cat #041-95750V) containing 10% fetal bovine serum, with added L-glutamine (2 mM; Invitrogen, Cat #25030-024) and non-essential amino acids (5%; Invitrogen, Cat #11140-035). Initially HEK293 cells were transfected with two plasmid vectors for expression of the hCav2.2 α subunit (pCIN5-hCav2.2 which carries a neomycin resistance marker) and the hCav β3 subunit (pCIH-hCav β3 which carries a hygromycin resistance marker). Clonal cell lines were isolated following selection in media supplemented with 0.4 mg ml^−1 Geneticin G418 (Invitrogen, Cat #10131-027) and 0.1 mg ml^−1 hygromycin (Invitrogen, Cat #10687-010). These clonal cell lines were assessed for Cav2.2 α/β3-mediated current expression using the IonWorks planar array electrophysiology technology (described below). A clonal line was identified that gave a reasonable level of functional Cav2.2 α/β3 current expression. This cell line was transfected with a plasmid vector for expression of the human α2δ1 subunit (pCIP-α2δ1 which carries a puromycin resistance marker) and clonal cell lines isolated following selection in media containing 0.62 μg ml^−1 puromycin (Sigma, Cat #P-7255), in addition to 0.4 mg ml^−1 Geneticin G418 and 0.1 mg ml^−1 hygromycin. Several cell lines were identified that gave robust levels of Cav2.2 α/β3/α2δ1-mediated current expression and one of these was selected for compound profiling. Expression of all three subunits within this cell line was continuously maintained by the inclusion of G418 (0.4 mg ml^−1), hygromycin (0.1 mg ml^−1) and puromycin (0.62 μg ml^−1). Cells were maintained at 37° C. in a humidified environment containing 5% CO2 in air. Cells were liberated from the T175 culture flasks for passage and harvesting using TrpLE (Invitrogen, Cat #12604-013).
Cells were grown to 30-60% confluence in T175 flasks and maintained at 30° C. for 24 hrs prior to recording. Cells were lifted by removing the growth media, washing with Ca^2+ free PBS (Invitrogen, Cat #14190-094) and incubating with 3 ml of warmed (37° C.) TrpLE (Invitrogen, Cat #12604-013) for 6 minutes. Lifted cells were suspended in 10 ml of extracellular buffer. Cell suspension was then placed into a 15 ml tube and centrifuged for 2 minutes at 700 rpm. After centrifugation, the supernatant was removed and the cell pellet was resuspended in 4.5 ml of extracellular solution.
Currents were recorded at room temperature (21-23° C.) using the IonWorks planar array electrophysiology technology (Molecular Devices Corp.). Stimulation protocols and data acquisition were carried out using a microcomputer (Dell Pentium 4). In order to determine planar electrode hole resistances (Rp), a 10 mV, 160 ms potential difference was applied across each hole. These measurements were performed before cell addition. After cell addition a seal test was performed prior to antibiotic (amphotericin) circulation to achieve intracellular access. Leak subtraction was conducted in all experiments by applying a 160 ms hyperpolarizing (10 mV) prepulse 200 ms before the test pulses to measure leak conductance. Test pulses stepping from the holding potential (VH) of −90 mV to +10 mV were applied for 20 ms and repeated 10 times at a frequency of 10 Hz. In all experiments, the test pulse protocol was performed in the absence (pre-read) and presence (post-read) of a compound. Pre- and post-reads were separated by a compound addition followed by a 3-3.5 min incubation. […]
A general note: In patch-clamp work, channel activity is measured electrically.

T1 sequence (Q00975 whole entry): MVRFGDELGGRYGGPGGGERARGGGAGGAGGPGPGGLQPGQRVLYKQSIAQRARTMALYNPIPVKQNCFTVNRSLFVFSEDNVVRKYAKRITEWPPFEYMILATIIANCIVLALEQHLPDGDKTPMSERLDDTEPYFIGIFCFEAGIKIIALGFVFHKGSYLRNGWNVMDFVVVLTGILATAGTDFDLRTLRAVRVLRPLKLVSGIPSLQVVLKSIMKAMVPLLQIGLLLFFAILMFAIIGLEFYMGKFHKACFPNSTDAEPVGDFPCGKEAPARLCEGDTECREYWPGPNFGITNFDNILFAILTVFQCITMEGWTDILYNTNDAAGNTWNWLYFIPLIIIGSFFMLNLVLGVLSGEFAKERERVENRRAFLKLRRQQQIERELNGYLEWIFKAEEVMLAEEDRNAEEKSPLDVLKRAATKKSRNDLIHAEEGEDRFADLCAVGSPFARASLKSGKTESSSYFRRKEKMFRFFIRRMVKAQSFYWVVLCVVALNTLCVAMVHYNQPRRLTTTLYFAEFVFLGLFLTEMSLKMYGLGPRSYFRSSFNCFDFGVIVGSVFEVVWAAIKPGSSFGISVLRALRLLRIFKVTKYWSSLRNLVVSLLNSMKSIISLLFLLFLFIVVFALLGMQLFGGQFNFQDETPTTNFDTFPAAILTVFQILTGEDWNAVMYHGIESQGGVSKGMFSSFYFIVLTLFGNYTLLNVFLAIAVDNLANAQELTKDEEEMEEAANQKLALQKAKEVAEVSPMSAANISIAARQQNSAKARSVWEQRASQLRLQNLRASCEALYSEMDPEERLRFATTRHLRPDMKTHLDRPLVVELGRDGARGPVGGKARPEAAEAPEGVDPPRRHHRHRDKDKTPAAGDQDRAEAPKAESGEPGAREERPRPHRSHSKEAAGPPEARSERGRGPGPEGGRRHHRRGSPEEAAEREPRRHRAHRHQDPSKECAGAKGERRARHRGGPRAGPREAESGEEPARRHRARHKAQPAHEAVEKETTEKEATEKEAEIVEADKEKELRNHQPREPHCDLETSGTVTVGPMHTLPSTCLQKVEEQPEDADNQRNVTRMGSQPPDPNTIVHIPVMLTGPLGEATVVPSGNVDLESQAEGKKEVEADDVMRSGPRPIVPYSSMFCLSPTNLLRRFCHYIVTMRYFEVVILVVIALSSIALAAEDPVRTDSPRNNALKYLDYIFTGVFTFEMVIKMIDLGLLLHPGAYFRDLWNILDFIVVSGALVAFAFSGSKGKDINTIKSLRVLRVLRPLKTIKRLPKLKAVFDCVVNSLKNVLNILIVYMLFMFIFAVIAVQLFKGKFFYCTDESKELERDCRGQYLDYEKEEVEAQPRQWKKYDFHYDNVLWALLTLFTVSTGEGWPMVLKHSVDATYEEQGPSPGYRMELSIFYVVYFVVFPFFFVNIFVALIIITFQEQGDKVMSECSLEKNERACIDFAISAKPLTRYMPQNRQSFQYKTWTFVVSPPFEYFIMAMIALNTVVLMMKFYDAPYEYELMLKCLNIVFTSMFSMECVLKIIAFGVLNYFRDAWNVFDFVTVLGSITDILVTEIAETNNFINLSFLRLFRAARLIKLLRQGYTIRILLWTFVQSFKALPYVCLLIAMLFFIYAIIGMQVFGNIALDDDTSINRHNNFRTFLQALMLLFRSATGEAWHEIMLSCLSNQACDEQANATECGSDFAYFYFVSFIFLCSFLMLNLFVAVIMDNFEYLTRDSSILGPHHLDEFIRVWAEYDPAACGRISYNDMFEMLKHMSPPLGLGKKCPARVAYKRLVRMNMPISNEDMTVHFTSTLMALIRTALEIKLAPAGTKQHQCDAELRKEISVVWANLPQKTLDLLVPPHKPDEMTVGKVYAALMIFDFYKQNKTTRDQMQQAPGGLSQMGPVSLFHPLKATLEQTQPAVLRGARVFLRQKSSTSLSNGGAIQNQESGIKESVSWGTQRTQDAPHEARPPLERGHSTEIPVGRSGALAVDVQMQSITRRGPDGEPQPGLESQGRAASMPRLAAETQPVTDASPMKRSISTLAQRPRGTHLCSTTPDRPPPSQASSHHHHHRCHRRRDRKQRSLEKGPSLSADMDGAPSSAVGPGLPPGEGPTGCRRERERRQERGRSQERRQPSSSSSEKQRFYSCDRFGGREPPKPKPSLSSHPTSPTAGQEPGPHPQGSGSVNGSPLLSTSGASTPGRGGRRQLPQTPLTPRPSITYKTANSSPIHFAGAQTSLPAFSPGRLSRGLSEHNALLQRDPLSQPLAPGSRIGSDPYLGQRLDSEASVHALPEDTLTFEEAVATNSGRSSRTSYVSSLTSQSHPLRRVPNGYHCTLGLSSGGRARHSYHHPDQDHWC
T1 sequence (P54284 whole entry partner): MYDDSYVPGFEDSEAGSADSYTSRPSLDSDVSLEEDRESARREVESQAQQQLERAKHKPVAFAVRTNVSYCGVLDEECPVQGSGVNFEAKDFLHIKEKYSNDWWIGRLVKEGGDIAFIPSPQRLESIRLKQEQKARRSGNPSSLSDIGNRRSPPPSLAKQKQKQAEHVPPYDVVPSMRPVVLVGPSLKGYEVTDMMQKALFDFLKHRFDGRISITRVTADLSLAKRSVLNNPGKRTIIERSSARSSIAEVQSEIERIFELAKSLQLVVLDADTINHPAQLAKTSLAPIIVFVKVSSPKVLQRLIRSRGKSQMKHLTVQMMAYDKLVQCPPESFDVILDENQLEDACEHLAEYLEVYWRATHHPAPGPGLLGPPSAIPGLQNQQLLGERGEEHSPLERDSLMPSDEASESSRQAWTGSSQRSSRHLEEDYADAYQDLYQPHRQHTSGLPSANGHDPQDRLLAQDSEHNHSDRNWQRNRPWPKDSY
T1 sequence (P54289 25-946 partner limits assumed): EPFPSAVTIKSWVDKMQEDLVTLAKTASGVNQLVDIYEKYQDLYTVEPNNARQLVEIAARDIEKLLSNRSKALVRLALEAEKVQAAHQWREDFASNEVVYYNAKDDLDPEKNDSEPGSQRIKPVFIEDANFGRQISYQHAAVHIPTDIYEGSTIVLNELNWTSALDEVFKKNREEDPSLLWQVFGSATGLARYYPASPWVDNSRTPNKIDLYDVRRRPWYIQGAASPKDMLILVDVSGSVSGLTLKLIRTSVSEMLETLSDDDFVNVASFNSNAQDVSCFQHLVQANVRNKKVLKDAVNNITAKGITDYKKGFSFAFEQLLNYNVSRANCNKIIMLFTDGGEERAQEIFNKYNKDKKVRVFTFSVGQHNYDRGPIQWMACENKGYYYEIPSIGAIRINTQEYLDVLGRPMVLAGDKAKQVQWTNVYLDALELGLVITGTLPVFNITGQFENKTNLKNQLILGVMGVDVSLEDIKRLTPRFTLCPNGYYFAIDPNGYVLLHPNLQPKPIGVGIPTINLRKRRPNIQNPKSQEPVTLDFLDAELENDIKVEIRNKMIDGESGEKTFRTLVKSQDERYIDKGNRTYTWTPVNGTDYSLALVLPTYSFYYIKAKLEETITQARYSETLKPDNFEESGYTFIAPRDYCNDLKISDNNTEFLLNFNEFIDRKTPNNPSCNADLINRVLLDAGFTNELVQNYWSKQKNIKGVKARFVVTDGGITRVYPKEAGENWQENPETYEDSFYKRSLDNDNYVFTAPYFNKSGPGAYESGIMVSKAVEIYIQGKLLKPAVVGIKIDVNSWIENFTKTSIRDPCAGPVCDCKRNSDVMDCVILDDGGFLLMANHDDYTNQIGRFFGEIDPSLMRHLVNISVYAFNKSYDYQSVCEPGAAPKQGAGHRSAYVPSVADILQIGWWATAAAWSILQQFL
T1 sequence (P54289 947-1103 partner limits assumed): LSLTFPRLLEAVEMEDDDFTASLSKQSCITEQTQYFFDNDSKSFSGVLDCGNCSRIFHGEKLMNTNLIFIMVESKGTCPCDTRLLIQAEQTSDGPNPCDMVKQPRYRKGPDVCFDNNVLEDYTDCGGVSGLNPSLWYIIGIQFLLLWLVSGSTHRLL

With `O=S1(=O)CCC2CN(Cc3nnnn3-c3cccc(C(F)(F)F)c3)CCN21` (stereo not shown) [Compound 79, 5-({1-[3-(Trifluoromethyl)phenyl]-1H-tetrazol-5-yl}methyl)hexahydro-2H-isothiazolo[2,3-a]pyrazine 1,1-dioxide], the IC50 is not above 31.6 µM. For the compound `C[C@@H]1C(=O)N(C)CCN1Cc1nnnn1-c1ccc(C(F)(F)F)cc1` [Compound 89, (3R)-1,3-Dimethyl-4-({1-[4-(trifluoromethyl)phenyl]-1H-tetrazol-5-yl}methyl)-2-piperazinone[]], the IC50 was not above 10 µM. Take `CC(C)N1CCN(Cc2nnnn2-c2ccc(C(F)(F)F)cc2)[C@H](C)C1=O` [Compound 90, (3R)-3-Methyl-1-(1-methylethyl)-4-({1-[4-(trifluoromethyl)phenyl]-1H-tetrazol-5-yl}methyl)-2-piperazinone]: the IC50 was not above 10 µM. As for `CCN1CCN(Cc2nnnn2-c2cccc(C(F)(F)F)c2)[C@H](C)C1` [Compound 92, (2R)-4-Ethyl-2-methyl,-1-({1-[3-(trifluoromethyl)phenyl]-1H-tetrazol-5-yl}methyl)piperazine hydrochloride], the IC50 was not above 31.6 µM. `CC(C)N1CCN(Cc2nnnn2-c2cccc(C(F)(F)F)c2)[C@H](C)C1` [Compound 94, (2R)-2-Methyl-4-(1-methylethyl)-1-({1-[3-(trifluoromethyl)phenyl]-1H-tetrazol-5-yl}methyl)piperazine hydrochloride]: the IC50 was not above 31.6 µM. On to `CC(C)N1CCN(Cc2nnnn2-c2ccc(C(F)(F)F)cc2)CC1` [Compound 96, 1-(1-Methylethyl)-4-({1-[4-(trifluoromethyl)phenyl]-1H-tetrazol-5-yl}methyl)piperazine hydrochloride], for which the IC50 was not above 31.6 µM. In the case of `CN1C[C@@H]2C[C@H]1CN2Cc1nnnn1-c1ccc(C(F)(F)F)cc1` [Compound 98, (1S,4S)-2-Methyl-5-({1-[4-(trifluoromethyl)phenyl]-1H-tetrazol-5-yl}methyl)-2,5-diazabicyclo[2.2.1]heptane hydrochloride], the IC50 was not above 31.6 µM. Turning to `N#Cc1ccc(-n2nnnc2CN2CCNCC2)cc1C(F)(F)F` [Compound 101, 4-[5-(1-piperazinylmethyl)-1H-tetrazol-1-yl]-2-(trifluoromethyl)benzonitrile], the IC50 is not above 10 µM. The same measure for `CC(=O)N1CCN(Cc2nnnn2-c2ccc(C#N)c(C(F)(F)F)c2)CC1` [Compound 102, 4-{5-[(4-acetyl-1-piperazinyl)methyl]-1H-tetrazol-1-yl}-2-(trifluoromethyl)benzonitrile]: not above 3.16 µM; for `N#Cc1ccc(-n2nnnc2CN2[C@@H]3CC[C@H]2COC3)cc1C(F)(F)F` [Compound 103, 4-[5-(3-oxa-8-azabicyclo[3.2.1]oct-8-ylmethyl)-1H-tetrazol-1-yl]-2-(trifluoromethyl)benzonitrile hydrochloride]: not above 10 µM.

Take `CCCS(=O)(=O)N1CCN(Cc2nnnn2-c2ccc(C#N)c(C(F)(F)F)c2)CC1` [Compound 106, 4-(5-{[4-(Propylsulfonyl)-1-piperazinyl]methyl}-1H-tetrazol-1-yl)-2-(trifluoromethyl)benzonitrile]: the IC50 is not above 3.16 µM.

For `C[C@@H]1CN(S(C)(=O)=O)C[C@H](C)N1Cc1nnnn1-c1ccc(C#N)c(C(F)(F)F)c1` [Compound 107, 4-(5-{[cis-2,6-Dimethyl-4-(methylsulfonyl)-1-piperazinyl]methyl}-1H-tetrazol-1-yl)-2-(trifluoromethyl)benzonitrile], the IC50 was not above 3.16 µM.

Turning to `FC(F)(F)c1cc(-n2nnnc2CN2C[C@@H]3C[C@H]2CO3)ccc1Cl` [Compound 110, (1S,4S)-5-({1-[4-chloro-3-(trifluoromethyl)phenyl]-1H-tetrazol-5-yl}methyl)-2-oxa-5-azabicyclo[2.2.1]heptane hydrochloride], the IC50 was not above 10 µM.

Consider `FC(F)(F)c1cc(-n2nnnc2CN2CCOCC2)ccc1Cl` [Compound 111, 4-({1-[4-chloro-3-(trifluoromethyl)phenyl]-1H-tetrazol-5-yl}methyl)morpholine], for which the IC50 was not above 3.16 µM. As for `CCS(=O)(=O)N1CCN(Cc2nnnn2-c2ccc(C#N)cc2)CC1` [Compound 118, 4-(5-{[4-(ethylsulfonyl)-1-piperazinyl]methyl}-1H-tetrazol-1-yl)benzonitrile], the IC50 is not above 31.6 µM. In the case of `CCS(=O)(=O)N1CCN(Cc2nnnn2-c2ccc(C#N)c(C(F)(F)F)c2)CC1` [Compound 121, 4-(5-{[4-(ethylsulfonyl)-1-piperazinyl]methyl}-1H-tetrazol-1-yl)-2-(trifluoromethyl)benzonitrile], the IC50 is not above 3.16 µM. As for `CC(C)S(=O)(=O)N1CCN(Cc2nnnn2-c2ccc(C#N)c(C(F)(F)F)c2)CC1` [Compound 122, 4-[5-({4-[(1-methylethyl)sulfonyl]-1-piperazinyl}methyl)-1H-tetrazol-1-yl]-2-(trifluoromethyl)benzonitrile], the IC50 is not above 3.16 µM. On to `FS(F)(F)(F)(F)c1ccc(-n2nnnc2CN2C[C@@H]3C[C@H]2CO3)cc1` [Compound 127, (1S,4S)-5-({1-[4-(pentafluoro-λ^6-sulfanyl)phenyl]-1H-tetrazol-5-yl}methyl)-2-oxa-5-azabicyclo[2.2.1]heptane], for which the IC50 was not above 31.6 µM.

As for `Cc1c(-n2nnnc2CN2C[C@@H]3C[C@H]2CO3)ccc(C#N)c1C(F)(F)F` [Compound 129, 3-methyl-4-{5-[(1S,4S)-2-oxa-5-azabicyclo[2.2.1]hept-5-ylmethyl]-1H-tetrazol-1-yl}-2-(trifluoromethyl)bbenzonitrile hydrochloride], the IC50 was not above 31.6 µM. On to `CCC(=O)N1CCN(Cc2nnnn2-c2ccc(C#N)c(C(F)(F)F)c2)CC1` [Compound 145, 4-{5-[(4-propanoyl-1-piperazinyl)methyl]-1H-tetrazol-1-yl}-2-(trifluoromethyl)benzonitrile], for which the IC50 is not above 3.16 µM. On to `CC(C)C(=O)N1CCN(Cc2nnnn2-c2ccc(C#N)c(C(F)(F)F)c2)CC1` [Compound 146, 4-(5-{[4-(2-methylpropanoyl)-1-piperazinyl]methyl}-1H-tetrazol-1-yl)-2-(trifluoromethyl)benzonitrile], for which the IC50 was not above 3.16 µM.

For `CC(C)N1CCC2(CCN(Cc3nnnn3-c3ccc(C#N)c(C(F)(F)F)c3)CC2)C1` [Compound 147, 4-(5-{[2-(1-methylethyl)-2,8-diazaspiro[4.5]dec-8-yl]methyl}-1H-tetrazol-1-yl)-2-(trifluoromethyl)benzonitrile dihydrochloride], the IC50 is not above 3.16 µM.
